From US12060355B2, “Compounds for use in the treatment of fascioliasis” (Merck Patent GmbH, priority 2018, dated 2024)

Test system: human HepG2 cell lines
Type: cell-based
Conditions: human HepG2 cell line

`Cc1nc2cnc(-c3cccc(C(F)(F)F)c3)cn2c1-c1c(F)cc(O)cc1F` [Example 15, 3,5-difluoro-4-[2-methyl-6-[3-(trifluoromethyl)phenyl]imidazo[1,2-a]pyrazin-3-yl]phenol] and `CCc1nc2cnc(-c3cccc(C(F)(F)C(F)(F)F)c3)cn2c1-c1c(F)cc(O)cc1F` [Example 52, 4-[2-Ethyl-6-(3-pentafluoroethyl-phenyl)-imidazo[1,2-a]pyrazin-3-yl]-3,5-difluoro-phenol] are within 1.5-fold of each other in “Cytotox HepG2” value: 8.4 µM for the first, 8.0 µM for the second.

`Fc1ccc(-c2cn3c(-c4ccc5[nH]ncc5c4F)c(C4CC4)nc3cn2)cc1S(F)(F)(F)(F)F` [Example 57, 2-Cyclopropyl-3-(4-fluoro-1H-indazol-5-yl)-6-(4-fluoro-3-pentafluorosulfanyl-phenyl)-imidazo[1,2-a]pyrazine] and `Fc1c(-c2c(C3CC3)nc3cnc(-c4cccc(S(F)(F)(F)(F)F)c4)cn23)ccc2[nH]ncc12` [Example 46, 2-cyclopropyl-3-(4-fluoro-1H-indazol-5-yl)-6-(3-(pentafluoro-λ6-sulfaneyl)phenyl)imidazo[1,2-a]pyrazine] are within 1.5-fold of each other in “Cytotox HepG2” value: 14.8 µM for the first, 20.7 µM for the second.

`CC(C)c1nn2cnc(-c3cccc(C(F)(F)F)c3)cc2c1-c1c(F)cc(O)cc1F` [Example 24, 3,5-difluoro-4-(2-isopropyl-5-(3-(trifluoromethyl)phenyl)pyrazolo[1,5-c]pyrimidin-3-yl)phenol] and `CC(C)c1nc2cnc(-c3cccc(S(F)(F)(F)(F)F)c3)cn2c1-c1c(F)cc(O)cc1F` [Example 39, 3,5-difluoro-4-[2-(propan-2-yl)-6-[3-(pentafluorosulfanyl)phenyl]imidazo[1,2-a]pyrazin-3-yl]phenol] are within 1.5-fold of each other in “Cytotox HepG2” value: 8.4 µM for the first, 6.6 µM for the second.

`CC(C)Oc1cccc(-c2cn3c(-c4ccc5[nH]ncc5c4F)c(C(F)(F)F)nc3cn2)c1` [Example 86, 3-(4-Fluoro-1H-indazol-5-yl)-6-(3-isopropoxy-phenyl)-2-trifluoromethyl-imidazo[1,2-a]pyrazine] and `CC(C)c1cccc(-c2cn3c(-c4ccc5[nH]ncc5c4F)c(C(F)(F)F)nc3cn2)c1` [Example 66, 3-(4-Fluoro-1H-indazol-5-yl)-6-(3-isopropyl-phenyl)-2-trifluoromethyl-imidazo[1,2-a]pyrazine] are within 1.5-fold of each other in “Cytotox HepG2” value: 13.2 µM for the first, 12.9 µM for the second.

`CC(C)c1cc(-c2cn3c(-c4ccc5[nH]ncc5c4F)c(C(C)C)nc3cn2)ccc1F` [Example 74, 3-(4-Fluoro-1H-indazol-5-yl)-6-(4-fluoro-3-isopropyl-phenyl)-2-isopropyl-imidazo[1,2-a]pyrazine] and `CC(C)c1cc(-c2cn3c(-c4ccc5[nH]ncc5c4F)c(C4CC4)nc3cn2)ccc1F` [Example 79, 2-Cyclopropyl-3-(4-fluoro-1H-indazol-5-yl)-6-(4-fluoro-3-isopropyl-phenyl)-imidazo[1,2-a]pyrazine] are within 1.5-fold of each other in “Cytotox HepG2” value: 11.0 µM for the first, 15.7 µM for the second.

Compared with `CC(C)c1cc(-c2cn3c(-c4ccc5[nH]ncc5c4F)c(C(F)(F)F)nc3cn2)ccn1` [Example 87, 3-(4-Fluoro-1H-indazol-5-yl)-6-(2-isopropyl-pyridin-4-yl)-2-trifluoromethyl-imidazo[1,2-a]pyrazine], `CC(C)c1cc(-c2cn3c(-c4ccc5[nH]ncc5c4F)c(C(F)(F)F)nc3cn2)ccc1F` [Example 67, 3-(4-Fluoro-1H-indazol-5-yl)-6-(4-fluoro-3-isopropyl-phenyl)-2-trifluoromethyl-imidazo[1,2-a]pyrazine] is 1.8-fold higher in “Cytotox HepG2” value: 9.5 µM for the first, 17.0 µM for the second.

`Oc1cc(F)c(-c2c(C3CCC3)nc3cnc(-c4ccc(F)c(C(F)(F)F)c4)cn23)c(F)c1` [Example 35, 4-(2-cyclobutyl-6-(4-fluoro-3-(trifluoromethyl)phenyl)imidazo[1,2-a]pyrazin-3-yl)-3,5-difluorophenol] and `CCc1nc2cnc(-c3ccc(F)c(C(F)(F)F)c3)cn2c1-c1c(F)cc(O)cc1F` [Example 36, 3,5-difluoro-4-[2-ethyl-6-[4-fluoro-3-(trifluoromethyl)phenyl]imidazo[1,2-a]pyrazin-3-yl]phenol] are within 1.5-fold of each other in “Cytotox HepG2” value: 5.7 µM for the first, 8.3 µM for the second.

`Fc1c(-c2c(C(F)(F)F)nc3cnc(-c4cccc(OC(F)(F)F)c4)cn23)ccc2[nH]ncc12` [Example 72, 3-(4-Fluoro-1H-indazol-5-yl)-6-(3-trifluoromethoxy-phenyl)-2-trifluoromethyl-imidazo[1,2-a]pyrazine] and `Fc1c(-c2c(C(F)(F)F)nc3cnc(-c4cccc(C(F)(F)C(F)(F)F)c4)cn23)ccc2[nH]ncc12` [Example 29, 4-fluoro-5-{2-trifluoromethyl-6-[3-(pentafluoroethyl)phenyl]imidazo[1,2-a]pyrazin-3-yl}-1H-indazole] are within 1.5-fold of each other in “Cytotox HepG2” value: 9.7 µM for the first, 8.9 µM for the second.

`Oc1cc(F)c(-c2c(C3CC3)nc3cnc(-c4ccc(F)c(S(F)(F)(F)(F)F)c4)cn23)c(F)c1` [Example 56, 4-[2-Cyclopropyl-6-(4-fluoro-3-pentafluorosulfanyl-phenyl)-imidazo[1,2-a]pyrazin-3-yl]-3,5-difluoro-phenol] and `Cc1nc2cnc(-c3ccc(F)c(C(F)(F)C(F)(F)F)c3)cn2c1-c1c(F)cc(O)cc1F` [Example 53, 3,5-Difluoro-4-[6-(4-fluoro-3-pentafluoroethyl-phenyl)-2-methyl-imidazo[1,2-a]pyrazin-3-yl]-phenol] are within 1.5-fold of each other in “Cytotox HepG2” value: 10.1 µM for the first, 8.8 µM for the second.

`CCc1nc2cnc(-c3ccc(F)c(C(F)(F)F)c3)cn2c1-c1ccc2[nH]ncc2c1F` [Example 37, 4-fluoro-5-{2-ethyl-6-[4-fluoro-3-(trifluoromethyl)phenyl]imidazo[1,2-a]pyrazin-3-yl}-1H-indazole] and `Fc1ccc(-c2cn3c(-c4ccc5[nH]ncc5c4F)c(C(F)(F)F)nc3cn2)cc1C1CC1` [Example 84, 6-(3-Cyclopropyl-4-fluoro-phenyl)-3-(4-fluoro-1H-indazol-5-yl)-2-trifluoromethyl-imidazo[1,2-a]pyrazine] are within 1.5-fold of each other in “Cytotox HepG2” value: 13.1 µM for the first, 10.5 µM for the second.

`Fc1c(-c2c(C(F)(F)F)nc3cnc(-c4ccnc(C(F)(F)F)c4)cn23)ccc2[nH]ncc12` [Example 88, 3-(4-Fluoro-1H-indazol-5-yl)-2-trifluoromethyl-6-(2-trifluoromethyl-pyridin-4-yl)-imidazo[1,2-a]pyrazine] and `Fc1ccc(-c2cn3c(-c4ccc5[nH]ncc5c4F)c(C(F)(F)F)nc3cn2)cc1CC(F)(F)F` [Example 69, 3-(4-Fluoro-1H-indazol-5-yl)-6-[4-fluoro-3-(2,2,2-trifluoro-ethyl)-phenyl]-2-trifluoromethyl-imidazo[1,2-a]pyrazine] are within 1.5-fold of each other in “Cytotox HepG2” value: 7.0 µM for the first, 5.3 µM for the second.

`Fc1ccc(-c2cn3c(-c4ccc5[nH]ncc5c4F)c(C(F)(F)F)nc3cn2)cc1C(F)(F)C(F)(F)F` [Example 63, 3-(4-Fluoro-1H-indazol-5-yl)-6-(4-fluoro-3-pentafluoroethyl-phenyl)-2-trifluoromethyl-imidazo[1,2-a]pyrazine] and `Fc1ccc(-c2cn3c(-c4ccc5[nH]ncc5c4F)c(C(F)(F)F)nc3cn2)cc1S(F)(F)(F)(F)F` [Example 65, 3-(4-Fluoro-1H-indazol-5-yl)-6-(4-fluoro-3-pentafluorosulfanyl-phenyl)-2-trifluoromethyl-imidazo[1,2-a]pyrazine] are within 1.5-fold of each other in “Cytotox HepG2” value: 11.7 µM for the first, 11.1 µM for the second.
